Assay results from ChEMBL document CHEMBL1139113, “Inhibition of the mitochondrial F1F0-ATPase by ligands of the peripheral benzodiazepine receptor” (Bioorg Med Chem Lett, 2007).

Assays:
Ramos [1] = assay: Induction of reactive oxygen species response in Ramos cells after 1 hr; assay type: functional, cell-based; settings: Homo sapiens
Ramos [2] = assay: Induction of cell death in Ramos cells after 24 hrs; assay type: functional, cell-based; settings: Homo sapiens
Jurkat [3] = assay: Induction of reactive oxygen species response in Jurkat cells after 1 hr; assay type: functional, cell-based; settings: Homo sapiens
Jurkat [4] = assay: Induction of cell death in Jurkat cells after 24 hrs; assay type: functional, cell-based; settings: Homo sapiens
[5] = Inhibition of F1F0-ATPase hydrolysis activity in bovine submitochondrial particles; set-up: species or system Bos taurus
[6] = Inhibition of F1F0-ATPase synthesis activity in bovine submitochondrial particles; set-up: species or system Bos taurus
Jurkat [7] = assay: Induction of cell death in Jurkat cells at 75 uM in presence of Vitamin E after 24 hrs; assay type: functional, Homo sapiens
Jurkat [8] = assay: Induction of reactive oxygen species response in Jurkat cells at 75 uM in presence of Mn(III)tetrakis(4-benzoic acid)porphyrin after 1 hr; assay type: functional, Homo sapiens
Jurkat [9] = assay: Induction of reactive oxygen species response in Jurkat cells at 75 uM in presence of Vitamin E after 1 hr; assay type: functional, Homo sapiens
Jurkat [10] = assay: Induction of cell death in Jurkat cells at 75 uM after 24 hrs; assay type: functional, Homo sapiens
Jurkat [11] = assay: Induction of cell death in Jurkat cells at 75 uM in presence of Mn(III)tetrakis(4-benzoic acid)porphyrin after 24 hrs; assay type: functional, Homo sapiens
Jurkat [12] = assay: Induction of reactive oxygen species response in Jurkat cells at 75 uM after 1 hr; assay type: functional, Homo sapiens

SMILES | EC50 (Ramos [1]) [µM] | EC50 (Ramos [2]) [µM] | EC50 (Jurkat [3]) [µM] | EC50 (Jurkat [4]) [µM] | EC50 [5] [µM] | EC50 [6] [µM] | Activity (Jurkat [7]) [%] | Activity (Jurkat [8]) [%] | Activity (Jurkat [9]) [%] | Activity (Jurkat [10]) [%] | Activity (Jurkat [11]) [%] | Activity (Jurkat [12]) [%]
CN1C(=O)C(Cc2ccc3ccccc3c2)N=C(c2ccc(O)cc2)c2cc(Cl)ccc21 (stereo unspecified) | 7.3 | 6.3 | 10 | 6 | 8.9 | 5.5 |  |  |  |  |  | 
O=C1CN=C(c2ccccc2Cl)c2cc([N+](=O)[O-])ccc2N1 [CLONAZEPAM] | > 300 | > 300 | > 300 | > 300 | 240 | 120 |  |  |  |  |  | 
CN1C(=O)CN=C(c2ccccc2)c2cc(Cl)ccc21 [DIAZEPAM] | 170 | 250 | 200 | 170 | > 300 | 210 |  |  |  |  |  | 
CCC(C)N(C)C(=O)c1cc2ccccc2c(-c2ccccc2Cl)n1 (stereo unspecified) [PK-11195] | 100 | 90 | 56 | 75 | 230 | 33 | 55.9 | 39.7 | 33.9 | 85.5 | 68.9 | 67.9
CN1C(=O)CN=C(c2ccc(Cl)cc2)c2cc(Cl)ccc21 [RO-54864] | 180 | 130 | 230 | > 300 | > 300 | 210 |  |  |  |  |  | 
